Measured values published in publication PMC6896158, “Enzymatic Characterization of Wild-Type and Mutant Janus Kinase 1” (Cancers, 2019).
Where two headings read alike, the source gives them in different places.

What was measured:
[1] = molecular target: JAK1 (wild type constructs) (Homo sapiens, UniProt P23458); assay: Kinase assay with titration of itacitinib (γ-32P-ATP, STAT5b peptide); assay type: biochemical; settings: all wild type constructs (kinase domain, pseudokinase-kinase, full length); Ki=IC50/(1+S/KM)
Method: (§1) To our knowledge, it is unknown whether small-molecule JAK inhibitors bind the wild-type and mutant forms of the enzyme with equal affinity. Therefore, the inhibition constant (Ki) for Itacitinib was determined. JAK1 activity was measured by kinase assay in the presence of increasing concentrations of Itacitinib.
(§2) The 10 µL reaction mix contained 0.5 µL 20× Kinase Assay Buffer, 1 µCi γ-^32P-ATP and varying concentrations of ATP, STAT5b peptide, and inhibitor, as described for each experiment. Reactions were started with the addition of 5 µL JAK solution, with concentration as described for each experiment. After incubation at room temperature for 20–60 min, a 3.5 µL reaction mix was spotted onto P81 phosphocellulose paper (Dr. J. Oakhill, SVIMR. Australia) and the paper was placed into 5% (v/v) H3PO4. Paper was washed 4 × 15 min with 100 mL 5% (v/v) H3PO4, followed by 1 × 1 min with acetone. Paper was dried and exposed to a phosphorimager plate overnight. The plate was scanned using a Typhoon FLA 7000 phosphorimager (GE Life Sciences, Chicago, IL, USA) and the incorporated radioactivity of each spot was quantitated using ImageQuant TL software (GE Life Sciences). The background radioactivity, quantified from an area of the paper without reaction mix, was subtracted from that for the experimental spots. […]

JAK1 V658F = JAK1 V658F (Homo sapiens, UniProt P23458, V658F); assay: as above; assay type: biochemical; settings: V658F constructs (pseudokinase-kinase, full length); Ki=IC50/(1+S/KM)
Method: as §1, §2

JAK1 constructs = JAK1 constructs (Homo sapiens, UniProt P23458); assay: Thermal shift assay (SYPRO orange); assay type: binding; settings: all constructs containing a kinase domain
Method: To determine whether the V658F mutation affects protein stability we performed thermal shift assays on all the JAK constructs in the presence and absence of various cofactors that bind the kinase domain. SYPRO orange, which fluoresces when bound to hydrophobic residues, was added to a solution of protein and ligand. Fluorescence was measured as the temperature of the solution was increased, with increased fluorescence indicating the unfolding of the protein. The melting temperature (Tm) is represented by the inflection point of the fluorescence curve, with a higher Tm indicating greater thermal stability.
JAKs of 3–5 µg were diluted into the JAK Gel Filtration Buffer with 0.04× SYPRO orange, 4% (v/v) DMSO plus either 20 mM EDTA, 1 mM ATP and 2 mM MgCl2, or 6 µM itacitinib, and with or without 5 µM receptor peptide. The temperature was raised in 1 °C per min steps from 25 °C to 80 °C and fluorescence readings at 530 nm were taken at each interval. Sigmoidal curves were fitted to the fluorescence data to provide Tm values for each experiment.

JAK1 FERM-SH2 domain = molecular target: T1, JAK1 FERM-SH2 domain (Homo sapiens, UniProt P23458); assay: Isothermal titration calorimetry of IFNλR Box1/Box2 peptide binding; settings: peptide of IFNλR Box1 and Box2 motifs (human residues K250 - T299)
T1 construct: FERM-SH2 domains, 25-559; His tag (TEV-cleavable) (N, cleaved yes); made in house; host or cells: Sf21 insect cells (baculovirus)
Description: We considered the possibility that the pseudokinase and kinase domains of JAK may affect the binding of JAK to the cytokine receptor (either directly or allosterically), as well as the possibility that the V658F mutation might exert its oncogenic effect by influencing the interaction of JAK with receptor. […] We performed isothermal titration calorimetry (ITC) to determine the affinity of a peptide representing the IFNλR Box1 and Box2 motifs (human residues K250 - T299). […] However, there was no significant effect on receptor binding between the wild-type and mutant forms of the enzyme.

JAK1 wild-type and V658F = assay: Steady-state kinetics in the presence and absence of IFNλR peptide; assay type: biochemical, human; settings: 2 µM IFNλR peptide
Method: Receptor-binding is an important regulator of the activity of JAK in vivo and may be required in order for the V658F mutation to induce constitutive activity. Although we cannot include full-length receptor constructs in these assays we were able to include a peptide fragment that represents the box1/2 motifs. Therefore, we performed steady-state kinetics using JAK1 wild-type and V658F in the presence and absence of saturating concentrations of the IFNλR peptide.
The 10 µL reaction mix contained 0.5 µL 20× Kinase Assay Buffer, 1 µCi γ-^32P-ATP and varying concentrations of ATP, STAT5b peptide, and inhibitor, as described for each experiment. Reactions were started with the addition of 5 µL JAK solution, with concentration as described for each experiment. After incubation at room temperature for 20–60 min, a 3.5 µL reaction mix was spotted onto P81 phosphocellulose paper (Dr. J. Oakhill, SVIMR. Australia) and the paper was placed into 5% (v/v) H3PO4. […] The plate was scanned using a Typhoon FLA 7000 phosphorimager (GE Life Sciences, Chicago, IL, USA) and the incorporated radioactivity of each spot was quantitated using ImageQuant TL software (GE Life Sciences). The background radioactivity, quantified from an area of the paper without reaction mix, was subtracted from that for the experimental spots.

IFNλR (Homo sapiens) = IFNλR (Homo sapiens) (UniProt Q8IU57); settings: cited from earlier work
JAK1 = molecular target: T2, JAK1 (Homo sapiens, UniProt P23458); assay: Steady-state kinetics, kinase activity assay (KM for ATP and STAT5b peptide); assay type: biochemical; settings: 6 mM peptide substrate, read-out: KM, app (ATP)
T2 construct: full length, 25-1154; His tag (TEV-cleavable) (N, cleaved yes); made in house; host or cells: Sf21 insect cells (baculovirus)

[2] = molecular target: T3, full length wild type JAK1 (ΔN25) (human, UniProt P23458 25-1154); assay: ITC; IFNλR Box1/Box2 peptide binding to purified JAK1 constructs; three independent experiments; conditions not described in the methods; settings: both partners purified
T3 construct: human JAK1, the 'full length' construct, residues 25-1154 (the N-terminal residues deleted for expression); The results say the 25 N-terminal residues were deleted, the methods give 25-1154; also called FL WT; JAK1 FL WT; source: Sf21 insect cells, baculovirus, purified (HisTrap, TEV cleavage, Superdex 200); not shown: His tag, N-terminal, cleaved

[3] = molecular target: T4, full length JAK1 V658F (ΔN25) (human, UniProt P23458 25-1154, V658F); assay: as above; settings: both partners purified
T4 construct: human JAK1, the 'full length' construct, residues 25-1154, with the cancer-linked mutation V658F in the pseudokinase domain; also called FL V658F; JAK1 FL V658F; source: Sf21 insect cells, baculovirus, purified (HisTrap, TEV cleavage, Superdex 200); not shown: His tag, N-terminal, cleaved

JAK1 FERM-SH2 domains = molecular target: T5, JAK1 FERM-SH2 domains (human, UniProt P23458 25-559); assay: as above; settings: both partners purified
T5 construct: human JAK1 FERM-SH2 domains, residues 25-559; source: Sf21 insect cells, baculovirus, purified (HisTrap, TEV cleavage, Superdex 200); not shown: His tag, N-terminal, cleaved
T5 sequence (P23458 25-559): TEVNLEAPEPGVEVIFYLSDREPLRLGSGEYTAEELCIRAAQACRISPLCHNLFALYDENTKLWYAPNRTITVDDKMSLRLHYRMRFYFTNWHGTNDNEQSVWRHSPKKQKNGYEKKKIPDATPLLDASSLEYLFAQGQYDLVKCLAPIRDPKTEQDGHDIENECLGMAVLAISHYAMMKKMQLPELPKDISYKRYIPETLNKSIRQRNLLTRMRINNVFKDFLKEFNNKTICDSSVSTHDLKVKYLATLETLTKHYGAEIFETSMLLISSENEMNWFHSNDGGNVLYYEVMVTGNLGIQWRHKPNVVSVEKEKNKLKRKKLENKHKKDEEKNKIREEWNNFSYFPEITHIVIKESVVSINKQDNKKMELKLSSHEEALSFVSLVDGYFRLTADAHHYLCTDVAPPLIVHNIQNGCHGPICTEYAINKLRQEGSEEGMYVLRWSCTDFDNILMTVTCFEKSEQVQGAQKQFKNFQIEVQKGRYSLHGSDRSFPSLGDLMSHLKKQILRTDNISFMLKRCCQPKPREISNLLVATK

Chain of JAK1 constructs (P23458 862-1154 limits assumed): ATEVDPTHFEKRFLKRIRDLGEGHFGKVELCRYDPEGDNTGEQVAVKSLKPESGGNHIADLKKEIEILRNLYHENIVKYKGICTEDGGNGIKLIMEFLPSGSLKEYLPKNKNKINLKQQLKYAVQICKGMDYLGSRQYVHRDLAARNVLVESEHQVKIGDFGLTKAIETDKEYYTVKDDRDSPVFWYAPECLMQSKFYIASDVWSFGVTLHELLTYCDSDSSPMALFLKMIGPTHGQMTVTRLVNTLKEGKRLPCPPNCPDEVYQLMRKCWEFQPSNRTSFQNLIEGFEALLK
Chain of IFNλR (Homo sapiens) (Q8IU57 21-520): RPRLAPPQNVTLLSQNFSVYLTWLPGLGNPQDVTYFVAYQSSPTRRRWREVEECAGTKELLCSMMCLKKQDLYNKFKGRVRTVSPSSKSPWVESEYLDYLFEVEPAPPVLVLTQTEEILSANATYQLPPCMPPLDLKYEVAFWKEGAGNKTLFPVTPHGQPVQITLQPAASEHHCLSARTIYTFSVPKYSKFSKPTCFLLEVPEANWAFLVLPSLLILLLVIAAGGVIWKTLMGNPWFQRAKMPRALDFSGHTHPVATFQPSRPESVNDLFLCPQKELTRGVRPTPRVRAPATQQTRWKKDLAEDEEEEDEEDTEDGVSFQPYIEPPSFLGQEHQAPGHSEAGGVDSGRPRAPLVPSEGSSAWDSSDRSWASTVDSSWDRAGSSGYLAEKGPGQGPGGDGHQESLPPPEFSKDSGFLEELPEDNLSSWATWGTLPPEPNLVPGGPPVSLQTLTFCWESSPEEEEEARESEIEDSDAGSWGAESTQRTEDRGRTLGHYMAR
T3 sequence (P23458 25-1154, stated change not applied): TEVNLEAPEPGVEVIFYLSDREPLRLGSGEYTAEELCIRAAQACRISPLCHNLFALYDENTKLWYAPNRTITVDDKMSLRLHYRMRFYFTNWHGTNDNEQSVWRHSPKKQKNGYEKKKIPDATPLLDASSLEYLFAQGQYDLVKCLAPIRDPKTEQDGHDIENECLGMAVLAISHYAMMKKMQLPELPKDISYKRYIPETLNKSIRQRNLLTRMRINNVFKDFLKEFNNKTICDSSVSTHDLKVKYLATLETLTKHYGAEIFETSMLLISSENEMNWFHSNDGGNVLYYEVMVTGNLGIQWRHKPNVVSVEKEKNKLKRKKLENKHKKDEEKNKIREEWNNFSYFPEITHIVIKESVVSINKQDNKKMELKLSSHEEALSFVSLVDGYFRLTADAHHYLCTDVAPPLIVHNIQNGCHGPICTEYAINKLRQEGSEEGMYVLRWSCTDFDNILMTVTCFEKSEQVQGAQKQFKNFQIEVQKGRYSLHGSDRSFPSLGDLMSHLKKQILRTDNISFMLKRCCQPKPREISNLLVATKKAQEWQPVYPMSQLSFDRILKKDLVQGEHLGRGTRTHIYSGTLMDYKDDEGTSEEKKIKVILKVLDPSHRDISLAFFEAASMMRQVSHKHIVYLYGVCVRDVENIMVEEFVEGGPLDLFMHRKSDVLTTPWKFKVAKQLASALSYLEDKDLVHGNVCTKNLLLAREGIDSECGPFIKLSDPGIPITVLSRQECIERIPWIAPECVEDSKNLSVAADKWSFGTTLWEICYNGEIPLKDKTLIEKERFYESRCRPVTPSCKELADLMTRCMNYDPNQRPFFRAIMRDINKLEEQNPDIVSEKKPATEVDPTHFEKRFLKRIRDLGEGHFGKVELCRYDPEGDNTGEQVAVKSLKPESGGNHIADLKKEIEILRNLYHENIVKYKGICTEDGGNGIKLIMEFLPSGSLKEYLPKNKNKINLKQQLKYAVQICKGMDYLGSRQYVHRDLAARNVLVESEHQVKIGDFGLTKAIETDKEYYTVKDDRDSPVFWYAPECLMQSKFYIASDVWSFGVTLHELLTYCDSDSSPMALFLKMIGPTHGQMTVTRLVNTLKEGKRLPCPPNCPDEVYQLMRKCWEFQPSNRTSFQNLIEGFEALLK
Chain of JAK1 (wild type constructs) (P23458 862-1154 limits assumed): as the sequence (P23458 862-1154 limits assumed) above
Chain of JAK1 wild-type and V658F (P23458 25-559 limits assumed, stated change not applied): as the sequence (P23458 25-559) above
T1 sequence (P23458 25-559): as above
Chain of JAK1 V658F (P23458 25-1154 V658F): as the sequence (P23458 25-1154, stated change not applied) above, with V634F counted along it
T4 sequence (P23458 25-1154 V658F): as the sequence (P23458 25-1154, stated change not applied) above, with V634F counted along it

## N#CCC1(n2cc(-c3ncnc4[nH]ccc34)cn2)CN(C2CCN(C(=O)c3ccnc(C(F)(F)F)c3F)CC2)C1 [itacitinib]
[1]
  Ki: 0.5 to 2 nM
JAK1 V658F
  Ki: 0.5 to 2 nM
JAK1 constructs; 6 µM itacitinib, compared to ATP/Mg2+
  Tm change: further Tm increase

## IFNλR peptide: peptide representing the IFNλR Box1 and Box2 motifs (human residues K250 - T299) (KTLMGNPWFQRAKMPRALDFSGHTHPVATFQPSRPESVNDLFLCPQKELT)
JAK1 FERM-SH2 domain
  affinity (ITC): near-identical affinity to that previously reported
JAK1 wild-type and V658F
  effect on ATP KM or turnover rate: no significant differences

## JAK1 FERM-SH2 (from UniProt P23458)
IFNλR (Homo sapiens)
  Kd: 71 nM

## Nc1ncnc2c1ncn2[C@@H]1O[C@H](COP(=O)(O)OP(=O)(O)OP(=O)(O)O)[C@@H](O)[C@H]1O [ATP]
JAK1; full-length enzyme
  Km: 25 µM
JAK1; kinase domain alone
  Km: 175 µM
JAK1 constructs; 1 mM ATP and 2 mM MgCl2, compared to EDTA
  Tm change: increased Tm

B1: peptide representing the IFNλR Box1 and Box2 motifs (human residues K250 - T299) (peptide, UniProt Q8IU57 250-299, looked up)
peptide: KTLMGNPWFQRAKMPRALDFSGHTHPVATFQPSRPESVNDLFLCPQKELT
notes: human interferon-lambda receptor (IFNλR), intracellular Box1 and Box2 motifs, residues K250-T299; also called IFNλR peptide; interferon lambda box1-box2 peptide
[2]
  binding result: binds
[3]
  binding result: binds
JAK1 FERM-SH2 domains
  binding result: binds
